Laboratory results as given in patent publication US20220332821A1, “DOSING REGIMEN AND COMBINATION THERAPIES FOR MULTISPECIFIC ANTIBODIES TARGETING B-CELL MATURATION ANTIGEN” (NOVARTIS AG, priority 2019, published 2022).
Entries after “also recorded” stand apart in the source; their conditions may differ.

Assays:
[1] = tested on: BCMA shedding in KMS11 cells; assay: Shed BCMA levels by ELISA after GSI treatment of KMS11 cells; format: cell-based, human; conditions: 20 hours, serial dilution from 1 μM
Experimental: (§1) KMS11-Luc cells were cultured in a 96-well round bottomed plate (Corning #3799) at 1.5×10^5 cells per well in a final volume of 200 μL that included a 12-point, 5-fold serial dilution of AL-102 in RPMI1640 (Gibco #11875-085) supplemented with 20% FBS (Seradigm #1500-500) and L-glutamine (Thermo Fisher #25030-081). The highest starting concentration of AL-102 was 1 μM. Cells were incubated for 20 hours at 37° C./5% CO2. Cells were pelleted, supernatant collected for measurement of shed BCMA levels, and cell pellets stained for evaluation of BCMA membrane expression levels.
Soluble BCMA levels in supernatant were determined by ELISA following a vendor supplied protocol (R&D Systems #DY193). Briefly, recombinant human BCMA-Fc protein was included in the kit, and used to generate a standard curve. Collected samples were assayed and sBCMA concentrations extrapolated from the standard curve. Quantified values as determined by the kit were divided by 5.5 to correct for a molecular mass difference between BCMA-Fc fusion protein used in the kit as a standard curve (32,554.6 Da) and the mass of endogenously shed BCMA extra-cellular domain (5,899.3 Da). The results were analyzed using SoftMax Pro v5.4.1 and graphed in GraphPad Prism.

[2] = tested on: membrane BCMA on KMS11 cells; assay: BCMA membrane expression by flow cytometry after GSI treatment of KMS11 cells; format: cell-based, human
Experimental: as §1
Cells were pelleted by centrifugation, and supernatants were transferred to a fresh plate and frozen at −80° C. for later sBCMA analysis by ELISA. For membrane BCMA analysis, cell pellets were resuspended in 100 μL BD Stain Buffer containing BSA (BD#554657) and stained with anti-BCMA-PE (Biolegend, clone 19F2 1.25 ul/test) and Fixable Viability Dye eFluor506 (Thermo Scientific, 1:800 dilution) for 30 minutes at 4° C. Samples were analyzed by flow cytometry on a BD LSR Fortessa instrument. FlowJo v10 software was used for analysis. The anti-BCMA antibody binding capacity (ABC) on KMS11 cells was determined using Quantum Simply Cellular beads (Bangs Laboratories) following a vendor supplied protocol. The ABC is an estimate of the quantity of receptors per cell.

[3] = tested on: KMS11-Luc cells; assay: RTCC assay with KMS11-Luc and human T cells, BSBM3 and AL-102 matrix, Example 9; format: cell-based
Experimental: To evaluate the ability of AL-102 to enhance the activity of BSBM3, a redirected T cell cytotoxicity (RTCC) assay was performed using human T cells and a BCMA-expressing multiple myeloma cell line treated with dose range combinations of BSBM3 and AL-102 in a 10×8 matrix fashion. Human T cells were enriched from peripheral blood of three healthy human donors. First, peripheral blood mononuclear cells (PBMCs) were fractionated from donor blood using a Ficoll-Paque PLUS density gradient (GE Healthcare #17-1440-02) in Leucosep tubes (Greiner #227290) and stored as viable frozen aliquots in liquid nitrogen. PBMC were thawed and Pan T cells were isolated by negative selection according to manufacturer's recommended protocol (Miltenyi #130-096-535). The unlabeled cell fraction, enriched for T cells, was collected by manual magnetic separation on LS columns (Miltenyi #130-042-401). T cells were prepared in T cell media (TCM) consisting of RPMI-1640 (Gibco #11875-085), 10% FBS (Seradigm #1500-500), 1% Pen/Strep (Life Technologies #15070063), 1% L-glutamine (Thermo Scientific #25030-081), 1% Non-Essential Amino Acids (NEAA) (Life Technologies #11140-050), Sodium Pyruvate (NaPy) (Life Technologies #11360-070), HEPES (Life technologies, Cat #15630080), 0.1% 2-Betamercaptoethanol (2-BME) (Life Technologies, Cat #21985-023). KMS11 multiple myeloma cell line was cultured in RPMI1640 supplemented with 20% FBS (Gibco #11875-085, Seradigm #1500-500). The target MM cell line KMS11 was transduced to constitutively express luciferase (KMS11-Luc), and used to measure cell viability/survival. KMS11-Luc cells were pelleted and resuspended in fresh media immediately prior to plating to remove any basal level of shed BCMA that may be present. 7,500 KMS11-Luc target cells in 10 μL TCM were added to wells of 384-well plates (Corning #3765). 10 μl of BSBM3 at a concentration of 10 nM was serially diluted 5-fold, and 10 μl of AL-102 at a concentration of 1000 nM was serially diluted 5-fold, and dispensed into corresponding wells of the assay plates. 15,000 T cells were added to corresponding wells of the assay plate in 10 μL TCM for an E:T of 2:1. The assay was incubated at 37° C./5% CO2 for 48 hr, followed by measurement of luciferase activity to indicate target cell viability (BrightGlo, Promega #E2650) following manufacturer's protocols. Plates were read on an Envision plate reader. Target cells only (KMS11-Luc) without T cells or antibodies served as control and represent 100% luciferase activity (100% viability). Data were plotted and analyzed using GraphPad Prism. EC50 values were calculated using sigmoidal, 4-parameter non-linear regression curve fit.

Cc1cccc2c1NC(=O)[C@@H](NC(=O)[C@H](CCC(F)(F)F)[C@H](CCC(F)(F)F)C(N)=O)N=C2c1cccc(F)c1 [AL-102]
inhibition of BCMA shedding [1]: effectively inhibited shedding of BCMA from KMS11 cells in a dose-dependent manner
increase in cell surface BCMA expression ([2]; 1 μM AL-102 versus untreated KMS11 cells): 20 fold
average BCMA antibody-binding capacity (ABC) ([2]; KMS11 cells, 1 μM AL-102, 20 hours, untreated ˜14,000): ~285,000
AL-102 concentration with minimal effect on BSBM3 potency ([3]; RTCC combination matrix): ≤ 0.32 nM
AL-102 concentration with moderate effect on BSBM3 potency ([3]; RTCC combination matrix): 1.6 nM
AL-102 concentrations with maximum enhancement of BSBM3 potency ([3]; RTCC combination matrix): ≥ 8 nM
effect of AL-102 on RTCC potency of BSBM3 (in words) ([3]; combination with BSBM3): synergistically enhanced the RTCC potency of BSBM3; also recorded: enhanced the RTCC potency of BSBM3 in a dose dependent manner
